# Patent US20070207225A1 (priority 2006, published 2007)
# Legend:
# estrogen receptor ERα = biological target: T1, estrogen receptor ERα (Homo sapiens, UniProt P03372); conditions: competition assays, literature (Morito et al. 2001); cited from earlier work
# T1 sequence (P03372 1-595): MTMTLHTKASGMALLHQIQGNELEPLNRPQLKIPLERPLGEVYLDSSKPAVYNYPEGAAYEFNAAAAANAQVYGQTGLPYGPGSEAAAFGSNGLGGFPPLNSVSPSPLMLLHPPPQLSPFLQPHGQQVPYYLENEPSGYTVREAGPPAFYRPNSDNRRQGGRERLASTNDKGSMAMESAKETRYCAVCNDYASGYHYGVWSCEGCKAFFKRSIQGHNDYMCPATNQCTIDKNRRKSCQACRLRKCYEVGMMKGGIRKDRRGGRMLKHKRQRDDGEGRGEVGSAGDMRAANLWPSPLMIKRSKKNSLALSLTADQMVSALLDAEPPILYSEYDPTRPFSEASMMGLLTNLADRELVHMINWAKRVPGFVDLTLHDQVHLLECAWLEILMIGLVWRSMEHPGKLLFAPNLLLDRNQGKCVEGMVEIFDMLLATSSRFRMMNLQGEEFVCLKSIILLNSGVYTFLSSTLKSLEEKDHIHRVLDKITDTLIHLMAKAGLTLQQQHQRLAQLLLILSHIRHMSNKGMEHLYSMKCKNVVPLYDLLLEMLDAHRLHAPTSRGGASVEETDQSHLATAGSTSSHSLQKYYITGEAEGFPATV
# estrogen receptor ERβ = estrogen receptor ERβ (Homo sapiens, UniProt Q92731); conditions: competition assays, literature (Morito et al. 2001); cited from earlier work
# homocysteine = test: Plasma homocysteine in osteopenic women, six month study (immunochemiluminescent assay); type: in vivo, human
# Source text: Inflammatory markers, according to various representative embodiments of the present invention, may comprise G-reactive proteins and/or homocysteine and/or the like. […] Prior to the six month period, participants in the study were placed on a standard fat-reduced diet for four-weeks, which constituted a stabilization process. […] Throughout the study period, samples were obtained while participants were fasting to minimize dietary effects. The samples were used to measure serum C-reactive protein and plasma homocysteine.
# Plasma homocysteine was measured using an immunochemiluminescent assay (Immulite DPC, Los Angeles, Calif., USA). Samples were stored after separation at −80° C. until assayed. Homocysteine was assayed on plasma samples after treatment with S-adenosyl-L-homocysteine (SAH) hydrolase and dithiothreitol (DTT) solution. EDTA plasma was separated from the cells as soon as possible after collection. Samples were stored on ice between the time of sampling and centrifugation.
# (§1) For statistical evaluation of the serum C-reactive protein and homocysteine, a two-way ANOVA with Bonferroni post-test was performed.
# C-reactive protein = test: Serum C-reactive protein in osteopenic women, six month study (immunochemiluminescent assay); type: in vivo, human
# Source text: Inflammatory markers, according to various representative embodiments of the present invention, may comprise G-reactive proteins and/or homocysteine and/or the like. […] Prior to the six month period, participants in the study were placed on a standard fat-reduced diet for four-weeks, which constituted a stabilization process. The participants were then randomly assigned to receive either genistein, HRT or a placebo. Throughout the study period, samples were obtained while participants were fasting to minimize dietary effects. The samples were used to measure serum C-reactive protein and plasma homocysteine.
# Serum C-reactive protein was measured using an immunochemiluminescent assay (Immulite DPC, Los Angeles, Calif., USA). Samples were stored after separation at −80° C. until assayed. Sensitivity was 0.07 μg/ml with intra- and interassay coefficient of variations of 3.1 and 5.7%, respectively. The reference interval was 0.20-5.10 μg/ml.
# as §1
# fasting glucose = test: Fasting glucose levels in postmenopausal women, six month treatment (enzymatic kit); type: in vivo, human; conditions: for Fasting Glucose: n = 30, mean±SEM
# Source text: (§2) Cardiovascular risk markers, according to various embodiments of the present invention, may comprise fasting insulin levels, fasting glucose levels, insulin resistance levels, osteoprotegerin levels, sex hormone-binding globulin levels, fibrinogen levels, estradiol levels and/or the like. […] See Crisafulli A., Altavilla D., Marini H., Bitto A., Cucinotta D., Frisina N., Corrado F., D'Anna R., Squadrito G., Adamo E., Marini R., Romeo A., Cancellieri F., Buemi M., Squadrito F., Menopause, The Journal of the North American Menopause Society, Vol. 12 No. 2 pp. 186-192.
# (§3) Prior to this six month period, participants in the study were placed on a standard fat-reduced diet for four-weeks, which constituted a stabilization process.
# To measure fasting glucose levels, serum glucose was measured by an enzymatic kit (BioSystemSA, Barcelona, Spain), (intra-assay CV 1%; interassay CV 1.8%; lower detection limit, 0.0126 mmol/L). Glucose in the sample produces, by means of the coupled reactions, a colored complex that can be spectrophotometrically measured.
# (§4) Data was presented as mean±SEM, and the significance of the difference was assessed by analysis of variance, where a value of P less than 0.05 was considered statistically significant.
# fasting insulin = test: Fasting insulin levels in postmenopausal women, six month treatment (ELISA); type: in vivo, human; conditions: for Fasting Insulin: n = 30, mean±SEM
# Source text: as §2, §3
# To measure fasting insulin levels, insulin was measured by a commercially available ELISA kit according to the protocol of the manufacturer (DRG Diagnostik, Frauenberg Germany) (intraassay CV 4%; interassay CV 6%; lower detection limit, <1.5 μlU/ml).
# as §4
# insulin resistance = test: Insulin resistance (HOMA-IR) in postmenopausal women, six month treatment; type: in vivo, human; conditions: for Insulin resistance: HOMA-IR, n = 30, mean±SEM
# Source text: as §2, §3
# To measure insulin resistance levels, insulin was measured by a commercially available ELISA kit according to the protocol of the manufacturer (DRG Diagnostik, Frauenberg Germany) (intraassay CV 4%; interassay CV 6%; lower detection limit, <1.5 μlU/ml). Serum glucose was measured by an enzymatic kit (BioSystemSA, Barcelona, Spain), (intra-assay CV 1%; interassay CV 1.8%; lower detection limit, 0.0126 mmol/l). Glucose in the sample produces, by means of the coupled reactions, a colored complex that can be spectrophotometrically measured. Insulin resistance was calculated using the Homeostasis Model Assessment method (HOMA-IR=(insulin×glucose)/22.5).
# as §4
# [1] = test system: sex hormone-binding globulin; test: Sex hormone-binding globulin levels in postmenopausal women, six month treatment (immunoradiometric assay); type: in vivo, human; conditions: for Sex Hormone Binding Globulin: n = 30, mean±SEM
# Source text: as §2, §3
# To measure sex hormone-binding globulin levels, an immunoradiometric assay (RADIM SPA, Rome, Italy) (intra-assay CV 4%; interassay CV 5%; lower detection limit, 2.5 nmol/L) was used.
# as §4
# fibrinogen = test: Fibrinogen levels in postmenopausal women, six month treatment; type: in vivo, human; conditions: for Fibrinogen: n = 30, mean±SEM
# Source text: as §2, §3
# To measure fibrinogen levels, automated routine procedures were utilized.
# as §4
# osteoprotegerin = test: Osteoprotegerin levels in postmenopausal women, six month treatment (ELISA); type: in vivo, human; conditions: for Osteoprotegerin: n = 30, mean±SEM
# Source text: as §2, §3
# To measure osteoprotegerin levels, a commercially available ELISA kit according to the protocol of the manufacturer (Immunodiagnostik Bensheim Germany) was utilized. This assay detects monomeric, dimeric, and ligand-bound forms of OPG (intra-assay CV 5%; interassay CV 6%; lower detection limit, 0.14 pmol/l).
# as §4
# estradiol = test: Estradiol levels in postmenopausal women, six month treatment (HPLC-UV); type: in vivo, human; conditions: for Estradiol: baseline, prior to six month treatment, n = 30
# Source text: as §2, §3
# (§5) The assay was performed by using an HPLC method with UV detection.
# as §4
# [2] = Plasma genistein levels in postmenopausal women, six month treatment (HPLC-UV); type: in vivo, human; conditions: for Plasma Genistein: baseline, prior to six month treatment, n = 30
# Source text: as §2, §3, §5, §4
# [3] = osteopenic women, after six months, genistein 54 mg/day or HRT, mean ± SE
# [4] = osteopenic women, before treatment (baseline), n = 30, mean ± SE
# [5] = after six months, genistein 54 mg/d
# [6] = baseline, prior to six month treatment
# [7] = after six months, genistein 54 mg/d, listed as genistein
# [8] = baseline to six months, not taking uncertainties into account
# [9] = baseline, prior to six month treatment, listed as genistein
# Chain of estrogen receptor ERβ (Q92731 whole entry): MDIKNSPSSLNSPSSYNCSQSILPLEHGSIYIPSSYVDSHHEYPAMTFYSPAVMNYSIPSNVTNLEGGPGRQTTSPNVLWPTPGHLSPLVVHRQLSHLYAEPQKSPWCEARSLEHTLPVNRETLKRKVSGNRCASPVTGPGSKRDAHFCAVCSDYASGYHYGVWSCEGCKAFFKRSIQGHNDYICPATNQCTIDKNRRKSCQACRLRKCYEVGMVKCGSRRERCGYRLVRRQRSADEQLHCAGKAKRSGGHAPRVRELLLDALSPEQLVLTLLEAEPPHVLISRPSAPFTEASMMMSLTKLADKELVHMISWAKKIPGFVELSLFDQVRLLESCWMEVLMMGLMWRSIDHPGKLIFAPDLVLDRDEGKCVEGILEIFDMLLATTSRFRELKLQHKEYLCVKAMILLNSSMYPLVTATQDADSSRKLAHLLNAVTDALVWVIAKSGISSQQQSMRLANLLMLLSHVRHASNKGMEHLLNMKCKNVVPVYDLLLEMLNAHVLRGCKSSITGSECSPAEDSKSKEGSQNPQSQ
compound,measurement,setting,value
O=C1c2c(O)cc(O)cc2OCC1c1ccc(O)cc1 (stereo not shown) [dihydrogenistein],Binding to estrogen receptor ERα,estrogen receptor ERα,"binding similar to the isoflavones, but lower than genistein"
same,Binding to estrogen receptor ERβ,estrogen receptor ERβ,"binding similar to the isoflavones, but lower than genistein"
"O=c1c(-c2ccc(O)cc2)coc2cc(O)cc(O)c12 [Genistein, 4′,5,7-Trihydroxyisoflavone 5,7-Dihydroxy-3-(4-hydroxyphenyl)-4H-1-benzopyran-4-one]","Plasma homocysteine mean value, change from baseline","homocysteine; after six months, difference not statistically significant (P>0.05)",slightly decreased from baseline
same,"Plasma homocysteine, After",homocysteine; [3],10.72 ± 0.46 µmol/L
same,"Plasma homocysteine, Before",homocysteine; [4],11.36 ± 0.39 µmol/L
same,"C-reactive protein level, change from baseline",C-reactive protein; after 6 months of treatment,no significant differences at the end of treatment from baseline
same,"Serum C-reactive protein (CRP), After",C-reactive protein; [3],2.13 ± 0.45 mg/L
same,"Serum C-reactive protein (CRP), Before",C-reactive protein; [4],1.73 ± 0.31 mg/L
same,Decrease in levels of fasting glucose,"fasting glucose; after six months of treatment, P<0.001 as compared to placebo, FIG. 5",8.7±2.3%
same,Fasting Glucose,fasting glucose; [5],4.3 ± 0.10
same,Fasting Glucose,fasting glucose; [6],4.74 ± 0.11
same,Decrease of fasting insulin levels,"fasting insulin; after six months, FIG. 6",−12±3.33%
same,Fasting Insulin,fasting insulin; [5],6.24 ± 0.45
same,Fasting Insulin,fasting insulin; [6],7 ± 0.55
same,Decrease of insulin resistance levels,"insulin resistance; after six months, FIG. 7",−14±5.8%
same,Insulin resistance,insulin resistance; [5],1.18 ± 0.08
same,Insulin resistance,insulin resistance; [6],1.47 ± 0.12
same,Sex Hormone Binding Globulin,[1]; [5],63 ± 3.83 nmol/L
same,Sex Hormone Binding Globulin,[1]; [7],63 ± 3.83 nmol/L
same,Decrease of sex hormone binding globulin levels,[1]; [8],~11.3%
same,Sex Hormone Binding Globulin,[1]; [6],71 ± 4.2 nmol/L
same,Sex Hormone Binding Globulin,[1]; [9],71 ± 4.2 nmol/L
same,Fibrinogen,fibrinogen; [5],3.18 ± 0.12 g/L
same,Fibrinogen,fibrinogen; [7],3.18 ± 0.12 g/L
same,Decrease of fibrinogen levels,fibrinogen; [8],~11.7%
same,Fibrinogen,fibrinogen; [6],3.6 ± 0.12 g/L
same,Fibrinogen,fibrinogen; [9],3.6 ± 0.12 g/L
same,Decrease of osteoprotegerin levels,"osteoprotegerin; after six months, FIG. 8",−2±0.3%
same,Osteoprotegerin,osteoprotegerin; [5],4.4 ± 0.11
same,Osteoprotegerin,osteoprotegerin; [6],4.67 ± 0.13
same,"Estradiol levels, six month readings","estradiol; after 6 months, genistein 54 mg/d, FIG. 4A",approximately 78 pmol/L
same,Estradiol,estradiol,73 ± 2.19 pmol/L
same,Estradiol,estradiol; listed as genistein,approximately 74 pmol/L
same,Effect on estradiol levels,"estradiol; given over a six month period, FIG. 4A",does not significantly elevate estradiol levels
same,Increase in plasma genistein levels after 6 months of treatment,[2]; 6 months vs baseline,approximately 60%
same,Plasma Genistein,[2],0.07 ± 0.004 µmol/L
same,Plasma Genistein,[2]; listed as genistein,approximately 0.75 μmol/l
same,concentration at 6 months,"[2]; female, human, in vivo, 54 mg/d",~1200 nM
Oc1ccc([C@H]2COc3cc(O)ccc3C2)cc1 [equol],Binding to estrogen receptor ERα,estrogen receptor ERα,"binding similar to the isoflavones, but lower than genistein"
same,Binding to estrogen receptor ERβ,estrogen receptor ERβ,"binding similar to the isoflavones, but lower than genistein"
